In patent US5378838A, “Benzodiazepine cholecystokinin antagonists” (Merck & Co., Inc., priority 1993, dated 1995):
Like-named read-outs stand apart in the source and are kept apart here.

Tests used:
CCK receptor (pancreas) = target: T1, CCK receptor (pancreas) (Rattus norvegicus, UniProt P30551); test: CCK Receptor Binding (Pancreas), inhibition of 125I-CCK-8 binding; set-up: species or system rat (male Sprague-Dawley)
T1 construct: The whole pancreas was dissected free of fat tissue and was homogenized; from tissue; host or cells: whole pancreas membranes of male Sprague-Dawley rats
T1 sequence (P30551 1-444): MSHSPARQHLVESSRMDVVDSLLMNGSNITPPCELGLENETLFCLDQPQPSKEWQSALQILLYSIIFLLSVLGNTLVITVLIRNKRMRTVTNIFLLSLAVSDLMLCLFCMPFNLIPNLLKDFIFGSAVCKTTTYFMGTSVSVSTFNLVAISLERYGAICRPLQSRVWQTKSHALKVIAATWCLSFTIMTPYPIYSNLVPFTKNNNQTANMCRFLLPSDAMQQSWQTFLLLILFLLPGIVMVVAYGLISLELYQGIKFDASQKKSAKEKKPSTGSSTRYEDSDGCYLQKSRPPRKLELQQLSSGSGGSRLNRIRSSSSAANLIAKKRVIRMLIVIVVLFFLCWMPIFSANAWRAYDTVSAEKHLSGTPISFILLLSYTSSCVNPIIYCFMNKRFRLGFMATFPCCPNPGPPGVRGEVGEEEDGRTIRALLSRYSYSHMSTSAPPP
Protocol: 1. CCK Receptor Binding (Pancreas)
Male Sprague-Dawley rats (150-200 g) were sacrificed by decapitation. The whole pancreas was dissected free of fat tissue and was homogenized in 25 volumes of ice-cold 10 mM Hepes buffer with 0.1% soya bean trypsin inhibitor (pH 7.4 at 25° C.) with a Kinematica Polytron. The homogenates were centrifuged at 47,800 g for 10 min. Pellets were resuspended in 10 volumes of binding assay buffer (20 mM Hepes, 1 mM EGTA, 5 mM MgCl2, 150 mM NaCl, bacitracin 0.25 mg/ml, soya bean trypsin inhibitor 0.1 mg/ml, and bovine serum albumin 2 mg/ml, pH 6.5 at 25° C.) using a teflon homogenizer, 15 strokes at 500 rpm. The homogenate was further diluted in binding assay buffer to give a final concentration of 0.5 mg original wet weight/l ml buffer. […] All assays were run in duplicate. The reaction mixtures were incubated at 25° C. for 2 hours and the reaction terminated by rapid filtration (Brandell 24 well cell harvester) over Whatman GF/C filters, washing 3×4 mls with ice-cold 100 mM NaCl. The radioactivity on the filters was counted with a LKB gamma counter.
Drug displacement studies were performed with at least 10 concentrations of compounds of formula 1 and the IC50 values were determined by regression analysis.

CCK receptor (brain) = target: T2, CCK receptor (brain) (Cavia porcellus, UniProt H0VZC5); test: CCK Receptor Binding (Brain), inhibition of 125I-CCK-8 binding; set-up: species or system guinea pig (male Hartley); details: guinea pig cortex, 50 pM 125I-CCK-8, pH 6.5, 25° C., 2 hours
T2 construct: the cortex was removed and homogenized in 25 mL ice-cold 0.32M sucrose; from tissue; host or cells: cortex P2 membranes of male Hartley guinea pigs
T2 sequence (H0VZC5 1-426): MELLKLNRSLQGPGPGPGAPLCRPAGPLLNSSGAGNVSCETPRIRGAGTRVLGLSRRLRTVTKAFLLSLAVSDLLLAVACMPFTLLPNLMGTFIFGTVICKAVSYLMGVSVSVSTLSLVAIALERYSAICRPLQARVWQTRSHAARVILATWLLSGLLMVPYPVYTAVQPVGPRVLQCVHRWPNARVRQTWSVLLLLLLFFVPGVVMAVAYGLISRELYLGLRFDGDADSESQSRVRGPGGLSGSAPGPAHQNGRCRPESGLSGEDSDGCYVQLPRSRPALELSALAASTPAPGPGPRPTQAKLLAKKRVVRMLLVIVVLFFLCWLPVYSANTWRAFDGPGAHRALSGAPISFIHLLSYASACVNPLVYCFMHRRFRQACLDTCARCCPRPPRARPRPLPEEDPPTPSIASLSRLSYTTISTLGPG
Protocol: CCK-8 sulphated was radiolabelled and the binding was performed according to the description for the pancreas method with minor modifications.
Male Hartley guinea pigs (300-500g) were sacrificed by decapitation and the cortex was removed and homogenized in 25 mL ice-cold 0.32M sucrose. The homogenates were centrifuged at 1000 g for 10 minutes and the resulting supernatant was recentrifuged at 20,000 g for 20 minutes. […] All assays were run in duplicate. The reaction mixtures were incubated at 25° C. for 2 hours and then the reaction was terminated on Whatman GF/C filters by rapid filtration (Brandell 24 well cell Harvester) with 3×5 ml washes of cold 100 mM NaCl. The radioactivity on the filters was then counted with a LKB gamma counter.
Drug displacement studies were performed with at least 10 concentrations of compounds of formula 1 and the IC50 values were determined by regression analysis. IC50 refers to the concentration of the compound required to inhibit 50% of specific binding of ^125 I-CCK-8.

[1] = rat pancreas, 50 pM 125I-CCK-8, pH 6.5, 25° C., 2 hours, read-out: IC50 125I-CCK Pancreas
[2] = read-out: IC50 125I-CCK Pancreas, rat pancreas, 50 pM 125I-CCK-8, pH 6.5, 25° C., 2 hours

`CN1C(=O)[C@H](NC(=O)Nc2cccc(C[C@H](N)C(=O)O)c2)N=C(C2CCCCC2)c2ccccc21` [Example 6, N-{(3R)-1,3-Dihydro-1-methyl-2-oxo-5-cyclohexyl-1H-1,4-benzodiazepin-3-yl}-N'-{[3-((2S )amino-2-carboxy)ethylphenyl]-urea}] gave an IC50 (CCK receptor (pancreas); [1]) of 1790 nM and an IC50 (CCK receptor (brain)) of 1.1 nM.

In the case of `CN1C(=O)[C@H](NC(=O)Nc2cccc(C[C@H](N)C(=O)O)c2)N=C(c2ccccc2)c2ccccc21` [Example 3, N-{(3R)-1,3-Dihydro-1-methyl-2-oxo-5-phenyl-1H-1,4-benzodiazepin-3-yl}-N'-{[3-((2S)-amino-2-carboxy)ethylphenyl]-urea}], the IC50 (CCK receptor (pancreas); [2]) is reported as over 3000 nM and the IC50 (CCK receptor (brain)) is reported as 61.3 nM.

`COC(=O)[C@@H](N)Cc1cccc(NC(=O)N[C@@H]2N=C(C3CCCCC3)c3ccccc3N(C)C2=O)c1` [Example 5, N-{(3R)-1,3-Dihydro-1-methyl-2-oxo-5-cyclohexyl-1H-1,4-benzodiazepin-3-yl}-N'-{[3-((2S)-amino-2-methoxycarbonyl)ethylphenyl]-urea}] gave an IC50 (CCK receptor (pancreas); [1]) of 924 nM and an IC50 (CCK receptor (brain)) of 9.2 nM.

`COC(=O)C1(NC(=O)OC(C)(C)C)CCc2ccc(NC(=O)N[C@@H]3N=C(c4ccccc4)c4ccccc4N(C)C3=O)cc2C1` (stereo partly drawn) [Example 15, N-{(3R)-1,3-Dihydro-1-methyl-2-oxo-5-phenyl-1H-1,4-benzodiazepin-3-yl}-N'-{[7-(methyl-2-(R,S)-tert-butyloxycarbonylamino-1,2,3,4-tetrahydro-2-naphthoate)]-urea}] gave an IC50 (CCK receptor (pancreas); [2]) of over 3000 nM and an IC50 (CCK receptor (brain)) of 126 nM.

For `COC(=O)C1(N)CCc2c(cccc2NC(=O)N[C@@H]2N=C(c3ccccc3)c3ccccc3N(C)C2=O)C1` (stereo partly drawn) [Example 22, N-{(3R)-1,3-Dihydro-1-methyl-2-oxo-5-phenyl-1H-1,4-benzodiazepin-3-yl}-N'-{[5-(methyl-2-(R,S)-amino-1,2,3,4-tetrahydro-2-naphthoate)]-urea}], the IC50 (CCK receptor (pancreas)) was over 3000 nM and the IC50 (CCK receptor (brain)) was 2160 nM.

Molecule `CN1C(=O)[C@H](NC(=O)Nc2ccc3c(c2)CCC(N)(C(=O)O)C3)N=C(c2ccccc2)c2ccccc21` (stereo partly drawn) [Example 20, N-{(3R)-1,3-Dihydro-1-methyl-2-oxo-5-phenyl-1H-1,4-benzodiazepin-3-yl}-N'-{[6-(2-(R,S)-amino-1,2,3,4-tetrahydro-2-naphthoic acid)]-urea}] has an IC50 (CCK receptor (pancreas)) of over 3000 nM and an IC50 (CCK receptor (brain)) of 3520 nM.

In the case of `CN1C(=O)[C@H](NC(=O)Nc2cccc(C(N)CC(=O)O)c2)N=C(c2ccccc2)c2ccccc21` (stereo partly drawn) [Example 13, N-{(3R)-1,3-Dihydro-1-methyl-2-oxo-5-phenyl-1H-1,4-benzodiazepin-3-yl}-N'-{[3-((1R,S)-amino-2-carboxy)ethylphenyl]-urea}], the IC50 (CCK receptor (pancreas)) is reported as over 3000 nM and the IC50 (CCK receptor (brain)) is reported as over 3000 nM.

With `CN1C(=O)[C@H](NC(=O)Nc2cccc([C@H](N)C(=O)O)c2)N=C(c2ccccc2)c2ccccc21` [Example 9, N-{(3R)-1,3-Dihydro-1-methyl-2-oxo-5-phenyl-1H-1,4-benzodiazepin-3-yl}-N'-{[3-((1S)-amino-1-carboxy)methylphenyl]-urea}] the IC50 (CCK receptor (pancreas)) was over 3000 nM and the IC50 (CCK receptor (brain)) was 1330 nM.

With `CN1C(=O)[C@H](NC(=O)Nc2cccc([C@@H](N)C(=O)O)c2)N=C(c2ccccc2)c2ccccc21` [Example 10, N-{(3R)-1,3-Dihydro-1-methyl-2-oxo-5-phenyl-1H-1,4-benzodiazepin-3-yl}-N'-{[3-((1R)-amino-1-carboxy)methylphenyl]-urea}] the IC50 (CCK receptor (pancreas)) was over 3000 nM and the IC50 (CCK receptor (brain)) was 3590 nM.

Molecule `COC(=O)[C@@H](N)Cc1cccc(NC(=O)N[C@@H]2N=C(c3ccccc3)c3ccccc3N(C)C2=O)c1` [Example 2, N-{(3R)-1,3-Dihydro-1-methyl-2-oxo-5-phenyl-1H-1,4-benzodiazepin-3-yl}-N'-{[3-((2S)-amino-2-methoxycarbonyl)ethylphenyl]-urea}] has an IC50 (CCK receptor (pancreas)) of over 3000 nM and an IC50 (CCK receptor (brain)) of 114 nM.

Work on `COC(=O)C1(NC(=O)OC(C)(C)C)CCc2cccc(NC(=O)N[C@@H]3N=C(c4ccccc4)c4ccccc4N(C)C3=O)c2C1` (stereo partly drawn) [Example 14, N-{(3R)-1,3-Dihydro-1-methyl-2-oxo-5-phenyl-1H-1,4-benzodiazepin-3-yl}-N'-{[8-(methyl-2(R,S)-tert-butyloxycarbonylamino-1,2,3,4-tetrahydro-2-naphthoate)]-urea}] yielded an IC50 (CCK receptor (pancreas); [2]) of over 3000 nM and an IC50 (CCK receptor (brain)) of 647 nM.

`COC(=O)C1(N)CCc2cc(NC(=O)N[C@@H]3N=C(c4ccccc4)c4ccccc4N(C)C3=O)ccc2C1` (some centres unmarked) [Example 19] was tested, and the IC50 (CCK receptor (pancreas)) was over 3000 nM and the IC50 (CCK receptor (brain)) was over 3000 nM.

For `COC(=O)C1(NC(=O)OC(C)(C)C)CCc2c(cccc2NC(=O)N[C@@H]2N=C(c3ccccc3)c3ccccc3N(C)C2=O)C1` (stereo partly drawn) [Example 21, N-{(3R)-1,3-Dihydro-1-methyl-2-oxo-5-phenyl-1H-1,4-benzodiazepin-3-yl}-N'-{[5-(methyl-2-(R,S)-tert-butyloxycarbonylamino-1,2,3,4-tetrahydro-2-naphthoate)]-urea}], the IC50 (CCK receptor (pancreas); [2]) was over 3000 nM and the IC50 (CCK receptor (brain)) was 1690 nM.

`CN1C(=O)[C@H](NC(=O)Nc2ccc3c(c2)CC(N)(C(=O)O)CC3)N=C(c2ccccc2)c2ccccc21` (stereo partly drawn) [Example 17, N-{(3R)-1,3-Dihydro-1-methyl-2-oxo-5-phenyl-1H-1,4-benzodiazepin-3-yl}-N'-{[7-(2-(R,S)amino-1,2,3,4-tetrahydro-2-naphthoic acid)]-urea}] showed an IC50 (CCK receptor (pancreas)) of over 3000 nM and an IC50 (CCK receptor (brain)) of 28.4 nM.

Molecule `COC(=O)[C@H](Cc1cccc(NC(=O)N[C@@H]2N=C(C3CCCCC3)c3ccccc3N(C)C2=O)c1)NC(=O)OC(C)(C)C` [Example 4, N-{(3R)-1,3-Dihydro-1-methyl-2-oxo-5-cyclohexyl-1H-1,4-benzodiazepin-3-yl}-N'-{[3-((2S)-tert-butyloxycarbonylamino-2-methoxycarbonyl)ethylphenyl]-urea}] has an IC50 (CCK receptor (pancreas); [1]) of 961 nM and an IC50 (CCK receptor (brain)) of 3.9 nM.

`COC(=O)CC(N)c1cccc(NC(=O)N[C@@H]2N=C(c3ccccc3)c3ccccc3N(C)C2=O)c1` (stereo partly drawn) [Example 12, N-{(3R)-1,3-Dihydro-1-methyl-2-oxo-5-phenyl-1H-1,4-benzodiazepin-3-yl}-N,- {[3-((1R,S)-amino-2-methoxycarbonyl)ethylphenyl]-urea}] gave an IC50 (CCK receptor (brain)) of over 3000 nM.

Molecule `COC(=O)[C@@H](NC(=O)OC(C)(C)C)c1cccc(NC(=O)N[C@@H]2N=C(c3ccccc3)c3ccccc3N(C)C2=O)c1` [Example 7, N-{(3R)-1,3-Dihydro-1-methyl-2-oxo-5-phenyl-1H-1,4-benzodiazepin-3-yl}-N'-{[3-((1S)-tert-butyloxycarbonylamino-1-methoxycarbonyl)methylphenyl]-urea}] has an IC50 (CCK receptor (pancreas)) of over 3000 nM and an IC50 (CCK receptor (brain)) of 1980 nM.

With `COC(=O)CC(NC(=O)OC(C)(C)C)c1cccc(NC(=O)N[C@@H]2N=C(c3ccccc3)c3ccccc3N(C)C2=O)c1` (stereo partly drawn) [Example 11, N-{(3R)-1,3-Dihydro-1-methyl-2-oxo-5-phenyl-1 H-1,4-benzodiazepin-3-yl}-N'-{[3-((1R,S)-tert-butyloxycarbonylamino-2-methoxycarbonyl)ethylphenyl]-urea}] the IC50 (CCK receptor (pancreas)) was over 3000 nM and the IC50 (CCK receptor (brain)) was 386 nM.

In the case of `CN1C(=O)[C@H](NC(=O)Nc2cccc3c2CCC(N)(C(=O)O)C3)N=C(c2ccccc2)c2ccccc21` (stereo partly drawn) [Example 23, N-{(3R)-1,3-Dihydro-1-methyl-2-oxo-5-phenyl-1H-1,4-benzodiazepin-3-yl}-N'-{[5-(2-(R,S)-amino-1,2,3,4-tetrahydro-2-naphthoic acid)]-urea}], the IC50 (CCK receptor (pancreas)) is reported as over 3000 nM and the IC50 (CCK receptor (brain)) is reported as over 3000 nM.

With `COC(=O)C1(NC(=O)OC(C)(C)C)CCc2cc(NC(=O)N[C@@H]3N=C(c4ccccc4)c4ccccc4N(C)C3=O)ccc2C1` (stereo partly drawn) [Example 18, N-{(3R)-1,3-Dihydro-1-methyl-2-oxo-5-phenyl-1H-1,4-benzodiazepin-3-yl}-N'-{[6-(methyl-2-(R,S)-tert-butyloxycarbonylamino-1,2,3,4-tetrahydro-2-naphthoate)]-urea}] the IC50 (CCK receptor (brain)) was over 3000 nM.
